Experimental data published in patent publication US20250221960A1, “COMPOSITIONS AND METHODS FOR THE TREATMENT OF DEPRESSION” (Janssen Pharmaceuticals, Inc., priority 2022, published 2025).

Columns and labels:
Format in all cases: in vivo, human
subjects with MDD [1] = assay: SIGH-A score (anxiety), Example 1; conditions: Treatment Week 6; 10 mg; 59 subjects analyzed
Source text: v. To investigate the effect of aticaprant on symptoms of anxiety using the HAM-A and on core symptoms of anxiety using the HAM-A6 subscale.
• (i) Depression: Montgomery-Åsberg Depression Rating Scale (MADRS), Clinical Global Impression-Severity (CGI-S), Symptoms of Major Depressive Disorder Scale (SMDDS), and Self-assessment of treatment experience (SATE) • (ii) Anhedonia: Snaith-Hamilton Pleasure Scale (SHAPS) • (iii) Anxiety: Structured Interview Guide for the Hamilton Anxiety scale (SIGH-A) and HAM-A6 • (iv) Effects on Cognition: The Cognitive and Physical Functioning Questionnaire (CPFQ) • (v) Safety assessments

[2] = Weight change by treatment group, Example 1
Experimental: Treatment with aticaprant as described herein has several advantages over the treatments in the art. […] As used herein, the term “weight gain” refers to an increase in the weight of patient, relative to the weight of the patient before taking aticaprant or the weight of the patient that is assessed at the time of the initial administration of the aticaprant. In certain embodiments, the patient may actually see a decrease in overall weight, relative to the weight of the patient before taking aticaprant.
At the lead-in baseline timepoint, the mean weight for subjects in the placebo group was 76.17 kg compared to 78.66 in the aticaprant group. After 6 weeks in the double-blind treatment phase, the mean weight in the placebo group was 75.75 kg compared to 78.57 kg in the aticaprant group. […] This is unexpected because other adjunctive treatments for MDD result in a mean weight increase. See, Thase M, et al. J Clin Psych. 2015: 76 (9), 1224-1231; Thase, J Clin Psych. 2015, 76 (9): 1232-1240; El Khalili, Int J Neuropsychopharmacol. 2010, 13, 917-932; Marcus, J. Clin. Psychopharmacol. […] Nashville, Tenn, ACNP, 2008; Earley, American College of Neuropsychopharmacology, 2007, Annual Meeting Abstracts (Boca Raton, Fla, Dec. 9-13, 2007). Nashville, TN, ACNP, 2007). See, Table 29.

[3] = Completion / early withdrawal, Example 1; conditions: Full Safety Analysis Set; 10 mg, N = 85
Source text: Patients who passed the screening phase entered a lead in phase followed by a double-blind phase. Patients who responded to placebo during the lead in phase were labelled as non-responders. […] The double-blind treatment phase then continued for an additional 6 weeks, after which patients entered a withdrawal period.
Of the 121 subjects in the enriched population (60 in aticaprant and 61 in placebo group), 117 (96.7%) completed the study. The overall completion rate for the full ITT analysis set is 95%. This contrasts with completion rates of approximately 85% for studies of adjunctive aripiprazole (Pae, CNS Drugs, 2011; 25, 109-127) and 45-62% for adjunctive quetiapine (El Khalili cited above). In total 4 subjects (3.3%) discontinued the study: 2 subjects in placebo and 2 subjects in aticaprant treatment group. See, Tables 30 and 31.

subjects with MDD [4] = assay: ASEX sexual functioning, Example 1
Source text: As used herein, the term “decrease in sexual functioning” refers to reducing or lessening of one or more components of the human sex drive, i.e., sexual functioning. In some embodiments, the sexual functioning comprises one or more of sexual drive, sexual arousal, vaginal lubrication, erection, orgasm achievement, or orgasm satisfaction. In other embodiments, the sexual functioning comprises sexual drive. In further embodiments, the sexual functioning comprises vaginal lubrication satisfaction. In further embodiments, the sexual functioning comprises orgasm achievement. In yet other embodiments, the sexual functioning comprises orgasm satisfaction. Desirably, the patient's sexual functioning is assessed at the time of initial administration of the aticaprant. Thus, the patient's sexual functioning while taking aticaprant can be compared to the patient's sexual functioning before administration of aticaprant. Sexual functioning may be assessed by using standard scales and techniques such as the Arizona Sexual Experience Scale (ASEX). The ASEX is used to investigate whether aticaprant has a further positive or negative effect on sexual function. The ASEX is 5 item rating scale administered to patients that quantifies sexual drive, sexual arousal, vaginal lubrication or penile erection, ability to reach orgasm and satisfaction. Scores range from 5 to 30, and two different versions of the scale are available (males and females).
Patients had their sexual functioning measured using a standard, well accepted rating scale: ASEX. See, Table 32.

Structure (SMILES): Cc1cc(C)cc(C2CCCN2Cc2ccc(Oc3ccc(C(N)=O)cc3F)cc2)c1 (stereo not drawn) [aticaprant, 3-fluoro-4-4-2-(3,5-dimethylphenyl) pyrrolidin-1-yl-methylphenoxybenzamide]
- Change from Treatment Baseline in Structured Interview Guide for the SIGH-A Score, Arithmetic Mean (SD) (subjects with MDD [1]): −5.85 ± 5.369 scores on a scale
- Mean weight: Relative % Change ([2]; Withdrawal vs Lead-in, n = 85): −0.11%
- weight over the 6-week double blind treatment period ([2]; in vivo): remained relatively stable
- Mean weight: Absolute Change (Withdrawal - Lead-in) ([2]; n = 85): -0.09 kg
- Reason For Withdrawal/Termination: Adverse event [3]: 1 (1.2%)
- ASEX score: Relative % Change (subjects with MDD [4]; Endpoint vs Baseline, n = 85): −6.91%
- ASEX score: Absolute Change (subjects with MDD [4]; Endpoint vs Baseline, n = 85, lower score indicates improvement): −1.47
- sexual functioning during treatment (subjects with MDD [4]; based on assessment at time of initial administration): does not experience a decrease in sexual functioning
- mean change from treatment baseline (SD) in ASEX total score (subjects with MDD [4]; to week 6): -1.5 (4.02) points
